Consider 27 molecules from US20060100226A1, “2-Thiopyrimidinones as therapeutic agents” (priority 2004, published 2006).

Test [1] deals with T1, murine MEKK2 (mMEKK2) (Mus musculus, UniProt Q61083).
T1 sequence (Q61083 1-619): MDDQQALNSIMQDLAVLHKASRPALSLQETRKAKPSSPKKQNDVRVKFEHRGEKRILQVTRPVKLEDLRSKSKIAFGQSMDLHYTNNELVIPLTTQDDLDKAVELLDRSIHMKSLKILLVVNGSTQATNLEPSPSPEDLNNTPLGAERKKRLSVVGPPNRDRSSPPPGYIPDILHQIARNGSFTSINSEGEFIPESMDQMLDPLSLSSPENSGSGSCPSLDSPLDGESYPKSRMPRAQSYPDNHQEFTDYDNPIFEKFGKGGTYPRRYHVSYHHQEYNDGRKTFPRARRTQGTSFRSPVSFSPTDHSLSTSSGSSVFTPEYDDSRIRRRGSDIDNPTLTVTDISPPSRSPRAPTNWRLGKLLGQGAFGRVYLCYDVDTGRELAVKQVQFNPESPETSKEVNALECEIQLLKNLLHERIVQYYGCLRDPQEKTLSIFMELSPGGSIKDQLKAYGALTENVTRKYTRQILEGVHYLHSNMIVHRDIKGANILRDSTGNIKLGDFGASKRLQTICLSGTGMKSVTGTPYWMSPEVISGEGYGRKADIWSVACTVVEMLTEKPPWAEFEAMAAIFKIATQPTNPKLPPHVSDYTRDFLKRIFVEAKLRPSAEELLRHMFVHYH
Description: TR-FRET kinase assay (mMEKK2/MBP). The class given is biochemical. The note with it: substrate biotin MBP, 60 minutes at room temperature. The gist of the method:
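mMEKK2 was preincubated 10 min with compound in pH 7.5 Hepes/MgCl2/DTT/vanadate buffer, then biotin-MBP, anti-phospho-MBP antibody and ATP (5 uM solution added) were added and the reaction ran 60 min at room temperature. After EDTA stop, europium anti-mouse IgG and Cy5-streptavidin were added and TR-FRET was read at 615/665 nm.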
For orientation: Time-resolved FRET reads energy transfer from a long-lived donor to a nearby acceptor.

Test [2] addresses T1, murine MEKK2 (mMEKK2). In words: MEKK2 PhosphoELISA (mMEKK2/MKK4). The format is biochemical. The note with it: substrate MKK4/SKK1 (unactive), ATP final 10 μM, O.D. 450 nm. The text has this:
Another useful method for assessing protein kinase inhibition, and specifically MEKK2 inhibition, of compounds of the invention involves the MEKK2 phospho-antibody enzyme-linked immunosorbent assay (PhosphoELISA). This screening panel, which involves relatively few steps, is a useful indicator of potential inhibitors of MEKK2. Reactions to murine MEKK2 are observed as optical density measurements at an absorbance of 450 nm. Inhibitory activities can be expressed in terms of IC50, where IC50 is the molar concentration of compound required to inhibit protein kinase binding by 50%.
A phospho-antibody enzyme-linked immunosorbent assay (PhosphoELISA) was used to screen potential inhibitors of MEKK2. The assay was performed as follows: Compounds to be tested were weighed and solubilized in DMSO (Sigma) to a stock concentration of 10 mM. Serial dilutions starting from 1 mM were prepared with additional DMSO. These dilutions were further diluted to 250 μM in kinase reaction buffer [20 mM Hepes pH 7.5, 5 mM MgCl2, 1 mM DTT (Dithiothreitol-Sigma), 1 mM NaVO4 (sodium vanadate- Sigma). A 25 μl aliquot of this solution was transferred to a glutathione coated 96-well microplate (Pierce). A stock aliquot containing 50-125 ng of murine MEKK2 (mMEKK2) was added to each well and incubated on the microplate for 10 minutes at room temperature. A 25 μl solution of MKK4/SKK1 (unactive) was diluted 1:200 in kinase assay buffer and added to the reaction plate followed by 50 μl of 25 μM ATP (adenosine triphosphate) to afford a final well concentration of 10 μM. The reaction was allowed to proceed for 60 minutes at room temperature before washing 3 times with wash buffer [100 mM phosphate pH 7.5, 0.05% TWEEN 20 (Sigma)]. A solution of anti-phospho MKK4/SEK1 antibody (Calbiochem) and biotin anti rabbit IgG (Jackson Immunoresearch) was diluted 1:2500 in kinase reaction buffer and added to the appropriate wells. The reaction was incubated for 60 minutes at room temperature. The microplate was washed 3 times with wash buffer and 100 ul of streptavidin horseradish peroxidase (HRP-Pierce) was added and incubated for 30 minutes at room temperature. The microplate was washed 3 times with wash buffer and 100 μl of TMB (3,3′,5,5′-tetramethylbenzidine-Sigma) was added. The assay was allowed to develop for 15-20 minutes then the reaction was stopped with the addition of 100 μl of 0.2 N sulfuric acid. The optical density (O.D.) of the plate was read on the Victor™ plate reader using the absorbance at 450 nm.

SMILES strings stand for the structures.

In the case of `COc1cccc(-c2nc(SCc3cccc(NCc4ccc(Cl)c(Cl)c4)c3)[nH]c(=O)c2C#N)c1` [Example 1a, 2-[3-(3,4-Dichloro-benzylamino)-benzylsulfanyl]-4-(3-methoxy-phenyl)-6-oxo-1,6-dihydro-pyrimidine-5-carbonitrile], the IC50 in test [1] and in test [2] was less than 1 µM each time.
On to `COc1ccc(-c2nc(SCc3cccc(NCc4ccc(Cl)c(Cl)c4)c3)[nH]c(=O)c2C#N)cc1OC` [Example 1b, 2-[3-(3,4-Dichloro-benzylamino)-benzylsulfanyl]-4-(3,4-dimethoxy-phenyl)-6-oxo-1,6-dihydro-pyrimidine-5-carbonitrile], for which the values for the IC50 in test [1] and in test [2] were less than 5 µM and less than 1 µM, respectively.
Taken in the same sequence, the figures for `COc1ccc(-c2nc(SCc3cccc(NCc4ccc(Cl)c(Cl)c4)c3)[nH]c(=O)c2C#N)cc1-c1cccs1` [Example 1c] were less than 5 µM and less than 1 µM.
For `COc1cccc(-c2nc(SCc3cccc(NCc4cccc(Oc5ccc(Cl)cc5)c4)c3)[nH]c(=O)c2C#N)c1` [Example 1cc], in that order: less than 1 µM and less than 1 µM.
As for `COc1cccc(-c2nc(SCc3cccc(NCc4ccccc4)c3)[nH]c(=O)c2C#N)c1` [Example 1d], the IC50 in test [1] and in test [2] was less than 5 µM in each case.
Regarding `COc1cccc(-c2nc(SCc3cccc(NCc4ccc5cccc(O)c5n4)c3)[nH]c(=O)c2C#N)c1` [Example 1v], the IC50 in test [1] and in test [2] was less than 1 µM in each case.
On to `N#Cc1c(-c2ccccc2-c2cc3ccccc3s2)nc(SCc2cccc(NC(=O)c3ccc(Cl)c(Cl)c3)c2)[nH]c1=O` [Example 2bb, N-{3-[4-(2-Benzo[b]thiophen-2-yl-phenyl)-5-cyano-6-oxo-1,6-dihydro-pyrimidin-2-ylsulfanylmethyl]-phenyl}-3,4-dichloro-benzamide], for which the figures for the IC50 in test [1] and in test [2] were less than 5 µM and less than 1 µM, respectively.
In the case of `N#Cc1c(-c2ccccc2OC(F)(F)F)nc(SCc2cccc(NC(=O)c3ccc(Cl)c(Cl)c3)c2)[nH]c1=O` [Example 2dd, 3,4-Dichloro-N-{3-[5-cyano-6-oxo-4-(2-trifluoromethoxy-phenyl)-1,6-dihydro-pyrimidin-2-ylsulfanylmethyl]-phenyl}-benzamide], the IC50 in test [1] and in test [2] was less than 5 µM throughout.
As to `N#Cc1c(-c2ccccc2C(F)(F)F)nc(SCc2cccc(NC(=O)c3ccc(Cl)c(Cl)c3)c2)[nH]c1=O` [Example 2ee, 3,4-Dichloro-N-{3-[5-cyano-6-oxo-4-(2-trifluoromethyl-phenyl)-1,6-dihydro-pyrimidin-2-ylsulfanylmethyl]-phenyl}-benzamide], the IC50 (commonly the concentration that gives 50% inhibition) was less than 10 µM in test [1] and less than 1 µM in test [2].
Taken in the same sequence, the figures for `N#Cc1c(-c2ccc(C(F)(F)F)cc2)nc(SCc2cccc(NC(=O)c3ccc(Cl)c(Cl)c3)c2)[nH]c1=O` [Example 2ff, 3,4-Dichloro-N-{3-[5-cyano-6-oxo-4-(4-trifluoromethyl-phenyl)-1,6-dihydro-pyrimidin-2-ylsulfanylmethyl]-phenyl}-benzamide] were less than 5 µM and less than 5 µM.
For `N#Cc1c(-c2cccc(C(F)(F)F)c2)nc(SCc2cccc(NC(=O)c3ccc(Cl)c(Cl)c3)c2)[nH]c1=O` [Example 2gg, 3,4-Dichloro-N-{3-[5-cyano-6-oxo-4-(3-trifluoromethyl-phenyl)-1,6-dihydro-pyrimidin-2-ylsulfanylmethyl]-phenyl}-benzamide], in that order: more than 40 µM and less than 5 µM.
For `COc1cccc(-c2nc(SCc3cccc(NC(=O)c4ccc(Cl)c(Cl)c4)c3)[nH]c(=O)c2C#N)c1` [Example 2h], in that order: less than 5 µM and less than 5 µM.
As to `N#Cc1c(-c2ccc(OC(F)(F)F)cc2)nc(SCc2cccc(NC(=O)c3ccc(Cl)c(Cl)c3)c2)[nH]c1=O` [Example 2hh, 3,4-Dichloro-N-{3-[5-cyano-6-oxo-4-(4-trifluoromethoxy-phenyl)-1,6-dihydro-pyrimidin-2-ylsulfanylmethyl]-phenyl}-benzamide], the IC50 in test [1] was less than 40 µM; in test [2] it was less than 20 µM.
With `COc1cccc(-c2nc(SCc3cccc(NC(=O)c4c(-c5ccccc5)noc4C)c3)[nH]c(=O)c2C#N)c1` [Example 2i], the 50% inhibitory concentration (IC50) in test [1] and in test [2] was less than 10 µM each time.
With `N#Cc1c(-c2cccc([N+](=O)[O-])c2)nc(SCc2cccc(NC(=O)c3ccc(Cl)c(Cl)c3)c2)[nH]c1=O` [Example 2ii, 3,4-Dichloro-N-{3-[5-cyano-4-(3-nitro-phenyl)-6-oxo-1,6-dihydro-pyrimidin-2-ylsulfanylmethyl]-phenyl}-benzamide], the IC50 was less than 5 µM in test [1] and less than 1 µM in test [2].
Taken in the same sequence, the figures for `COc1ccc(-c2nc(SCc3cccc(NC(=O)c4ccc(Cl)c(Cl)c4)c3)[nH]c(=O)c2C#N)cc1-c1cccs1` [Example 2y, 3,4-Dichloro-N-{3-[5-cyano-4-(4-methoxy-3-thiophen-2-yl-phenyl)-6-oxo-1,6-dihydro-pyrimidin-2-ylsulfanylmethyl]-phenyl}-benzamide] were less than 5 µM and less than 1 µM.
Regarding `N#Cc1c(-c2cccc(-c3cc4ccccc4s3)c2)nc(SCc2cccc(NC(=O)c3ccc(Cl)c(Cl)c3)c2)[nH]c1=O` [Example 2z, N-{3-[4-(3-Benzo[b]thiophen-2-yl-phenyl)-5-cyano-6-oxo-1,6-dihydro-pyrimidin-2-ylsulfanylmethyl]-phenyl}-3,4-dichloro-benzamide], the IC50 in test [1] and in test [2] was less than 1 µM throughout.
`N#Cc1c(-c2cccc(C(=O)O)c2)nc(SCc2cccc(NC(=O)c3ccc(Cl)c(Cl)c3)c2)[nH]c1=O` [Example 4m] gave an IC50 in test [2] of less than 20 µM.
The same measure, in the same setting: the figure for `N#Cc1c(-c2cccc(S(=O)(=O)NCc3ccccc3)c2)nc(SCc2cccc(NC(=O)c3ccc(Cl)c(Cl)c3)c2)[nH]c1=O` [Example 4p] is less than 5 µM; for `N#Cc1c(-c2cccc(-n3cccc3)c2)nc(SCc2cccc(NC(=O)c3ccc(Cl)c(Cl)c3)c2)[nH]c1=O` [Example 4q] it is less than 1 µM.
In turn, `N#Cc1c(-c2ccc(-n3ccnc3)cc2)nc(SCc2cccc(NC(=O)c3ccc(Cl)c(Cl)c3)c2)[nH]c1=O` [Example 4r] displayed a half-maximal inhibitory concentration (IC50) in test [2] of less than 5 µM.
Same read-out and setting: to `N#Cc1c(-c2ccc(-n3cccc3)cc2)nc(SCc2cccc(NC(=O)c3ccc(Cl)c(Cl)c3)c2)[nH]c1=O` [Example 4s] belongs less than 1 µM; to `N#Cc1c(-c2ccc(-n3cccn3)cc2)nc(SCc2cccc(NC(=O)c3ccc(Cl)c(Cl)c3)c2)[nH]c1=O` [Example 4t], less than 20 µM.
The molecule `N#Cc1c(-c2cccc(-n3ccnc3)c2)nc(SCc2cccc(NC(=O)c3ccc(Cl)c(Cl)c3)c2)[nH]c1=O` [Example 4u] showed an IC50 in test [2] of less than 10 µM.
Still for that read-out and setting: to `N#Cc1c(-c2cccc(N3CCCC3)c2)nc(SCc2cccc(NC(=O)c3ccc(Cl)c(Cl)c3)c2)[nH]c1=O` [Example 4w] belongs less than 1 µM.
Still for that read-out and setting: the figure for `CCOC(=O)C1CCN(c2ccccc2-c2nc(SCc3cccc(NC(=O)c4ccc(Cl)c(Cl)c4)c3)[nH]c(=O)c2C#N)CC1` [Example 4x] is more than 40 µM; for `CCN(CC)CCOc1ccc(-c2nc(SCc3cccc(NC(=O)c4ccc(Cl)c(Cl)c4)c3)[nH]c(=O)c2C#N)cc1` [Example 4z] it is more than 40 µM.
